Assay results taken from patent US10245351B2, “Malleable hydrogel hybrids made of self-assembled peptides and biocompatible polymers and uses thereof” (Technology Innovation Momentum Fund (Israel) Limited …, priority 2010, dated 2019).

Test system: CHO (Chinese Hamster Ovaries) cells
Experiment: Cells viability test (MTT), cells on top of hydrogel
Type: cell-based
Method: To verify the ability of the hybrid hydrogels described herein to be used in biological applications, their biocompatibility was determined using an in vitro cell culture experiment. Three types of cells were cultivated on top of the hybrid hydrogels: CHO (Chinese Hamster Ovaries), fibroblasts and chondrocytes.
CHO, fibroblasts and chondrocytes cells were grown in Dulbecco's Modified
Eagle Medium (DMEM) supplemented with 10% fetal calf serum, 100 U/ml penicillin, 100 U/ml streptomycin, and 2 mmol/liter L-glutamine (all from Beit Haemeck, Israel). Cells were maintained at 37° C. in a humidified atmosphere containing 5% CO2. Subconfluent cultures were harvested by trypsinization, counted, and diluted in specific cells' media to form a cell concentration of 10^6 cells/ml. The gels swelled overnight with 0.1 ml DMEM. The next day, DMEM was removed and […] of the CHO cells (10^5 cells) were placed on top of the hydrogel. After 1, 3 and 7 days of incubation at 37° C. the viability of the cells was determined using an MTT assay.
The cell viability was analyzed 1, 3 and 7 days post seeding. Cells seeded as monolayers with PBS were used as control. Cell viability was analyzed using an MTT assay. […]

hyaluronic acid [HA]
viability, in words: high viability
